The target in series [1] is T1, human recombinant USP2a catalytic domain (residues 258-605) (Homo sapiens, UniProt O75604).
T1 sequence (O75604 258-605): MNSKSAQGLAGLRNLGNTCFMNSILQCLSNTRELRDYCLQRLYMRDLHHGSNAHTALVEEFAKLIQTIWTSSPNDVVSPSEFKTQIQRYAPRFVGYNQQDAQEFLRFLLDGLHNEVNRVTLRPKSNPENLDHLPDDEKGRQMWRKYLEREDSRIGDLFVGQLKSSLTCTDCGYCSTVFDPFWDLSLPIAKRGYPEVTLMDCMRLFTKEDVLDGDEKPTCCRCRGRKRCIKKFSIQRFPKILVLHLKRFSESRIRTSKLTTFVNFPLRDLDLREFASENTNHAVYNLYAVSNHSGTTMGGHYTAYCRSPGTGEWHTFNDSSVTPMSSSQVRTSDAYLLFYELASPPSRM
In words: Di-Ub K63-2 hydrolysis (FRET) assay. To be noted: read-out: IC50, USP2a activity, Di-Ub Assay; Di-Ub K63-2, 30 min pre-incubation.
Description: (§4) The assays were performed using Infinite 200 PRO – Tecan plate reader and 96-well, black Greiner microplates in a 100 μl reaction volume.
Di-Ub K63-2 hydrolysis assay was performed in 50 mM Tris/HCl pH=7.5, 1mM DTT. USP2a (20 nM) was preincubated with an excess of tested compound for 30 min. Fluorescence changes were recorded at excitation and emission wavelengths of 540 nm and 580 nm respectively, immediately after Di-Ub (200 nM, LifeSensors) addition.
(§5) All assays were performed simultaneously in triplicate and results are presented as mean values ± SD.

Series [2] concerns the target T1, human recombinant USP2a catalytic domain (residues 258-605). In words: Ub-AMC hydrolysis assay. Particulars: 30 min pre-incubation; for IC50: read-out: IC50, USP2a activity, Ub-AMC Assay.
Description: as §4
Ub-AMC-hydrolysis assay was performed in a reaction buffer (50 mM Tris/HCl, pH=7.5, 1 mM EDTA, 1 mM MgCl2).
as §5
The test system of series [3] is HCT116 p53^wt cells. In words: MTT assay (cell viability), 6 days treatment. The series is classed as cell-based, Human. Particulars: for growth-inhibitory (GI) properties: cell-based assay (discussion); for LD50 (concentration killing 50% of cells): Homo sapiens, HCT-116, 144 h, read-out: LD50. The method, then:
(§1) To test the biological activity of the compounds, we performed MTT (3-(4,5-dimethylthiazol-2-yl)-2,5-diphenyltetrazolium bromide) and lactate dehydrogenase (LDH) release assays. […] To track not only the toxic (lethal) but also growth-inhibitory (GI) effect in the MTT assay, we treated the cells for 6 days.
(§2) For MTT assay, the cells were seeded on 96-well transparent plates and treated the next day with the compounds or DMSO for 6 days. Thiazolyl Blue Tetrazolium Bromide (MTT, Sigma Aldrich) was added for 60 minutes to a final concentration of […]. The medium was removed and MTT crystals were dissolved in isopropanol supplemented with 40 mM HCl. The absorbance was measured with Infinite 200 microplate reader (Tecan Group Ltd.) at 570 nm with the reference wavelength 650 nm for background subtraction.

Series [4] has as its system HCT116 p53^wt cells. In words: Western blot analysis of protein expression. Particulars: for expression of p27: 5 or 20 μM, 48 hr, HCT116 cells (Figures 2A and S3A); for expression of proteins encoded by p53-target genes (MDM2 and p21) and of p53: 24 or 48 hr. The series is classed as cell-based, Human. (In general: Immunoblotting shows a protein as a band on a membrane.)

In series [5] the test system is HCT116 p53^wt cells. In words: Western blot analysis of protein expression. The series is classed as cell-based, Human. Particulars: 5 or 20 μM, 48 hr. From the text: (§3) The progression from G1 to S phase relies largely on the expression and activity of D cyclins. To verify whether the observed impairment in cell-cycle progression following LCAHA treatment is associated with D cyclins, we investigated the expression of cyclins D1 and D3 in HCT116 p53^wt and HCT116 p53^−/− cells.

In series [6] the test system is HCT116 p53^−/− cells. In words: Western blot analysis of protein expression. The series is classed as cell-based, Human. Particulars: 5 or 20 μM, 48 hr.
Description: as §3

In another series the target is T2, USP7 (Homo sapiens, UniProt Q93009).
T2 construct: Human USP7 catalytic domain (residues 208-561) was cloned into the pGEX-6P-1 vector; GST (N, cleaved yes); made in house; host or cells: E. coli BL21 (DE3)
In words: Ub-AMC assay, USP7 selectivity. The series is classed as biochemical. Particulars: 10 μM.

Series [7] deals with HCT116 p53^−/− cells. In words: MTT assay (cell viability), 6 days treatment. The series is classed as cell-based, Human. The method, then:
as §1, §2

The nature of series [8]: Solubility problems in cell line experiment or enzymatic assay. The series is classed as physicochemical. To be noted: in either the cell line experiment or the enzymatic assay.
The next series relates to USP2a. Also on record: method as in Nicholson et al., 2008. Particulars: ref Nicholson et al., 2008; read-out: EC50 (previously reported); cited from earlier work.
In series [9] the test system is HCT116 p53^wt cells. In words: Caspase 3/7 activity (Caspase-Glo 3/7). The series is classed as cell-based, Human. Particulars: staurosporine treatment (apoptosis inducer control). The protocol: To evaluate whether the observed effects are accompanied by the induction of apoptosis, we examined the activation of caspases 3 and 7 in HCT116 p53^wt cells.
The cells were plated on the 96-well white, flat bottom plates (Falcon) and treated with DMSO, LCAHA or Staurosporine. For the detection of caspase activity Caspase-Glo 3/7 Assay System was used (Promega) according to the manufacturer’s instructions.

Where [10] appears, read: Homo sapiens, HCT-116, 144 h, read-out: LD50.

Results on 13 compounds are retold here after publication PMC5404848 (Cell Chemical Biology, 2017).

The structures appear in SMILES notation. Like-named read-outs stand apart in the source and are kept apart here. A value given as a limit tells only on which side of the number the result lay.

T2 sequence (Q93009 208-561): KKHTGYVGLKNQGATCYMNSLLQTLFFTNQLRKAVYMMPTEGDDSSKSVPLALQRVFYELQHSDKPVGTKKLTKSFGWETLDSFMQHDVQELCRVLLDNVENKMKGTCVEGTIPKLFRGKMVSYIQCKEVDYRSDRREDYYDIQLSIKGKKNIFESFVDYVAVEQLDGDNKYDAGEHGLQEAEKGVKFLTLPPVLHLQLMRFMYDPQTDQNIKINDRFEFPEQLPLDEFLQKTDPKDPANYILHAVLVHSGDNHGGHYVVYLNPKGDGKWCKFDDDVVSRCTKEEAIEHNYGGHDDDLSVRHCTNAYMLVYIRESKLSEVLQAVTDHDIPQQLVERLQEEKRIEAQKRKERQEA
Description for USP7: Cells were grown in LB medium containing 100 μg/ml ampicillin at 37 °C and induced with 0.5 mM IPTG at OD600 of 0.7-0.9 and cultured overnight at 16 °C. Cells were harvested by centrifugation. Next cells were resuspended in buffer A (50 mM Tris/HCl pH 9.0, 50 mM NaCl, 3 mM β-mercapthoetanol) and disrupted by sonication. Cell lysate were clarified by centrifugation (45 000 g, 40 min.) and dialyzed against buffer A. Supernatant was loaded onto Q-Sepharose column and proteins were eluted with NaCl gradient. Fractions containing GST fused USP7 were combined, concentrated and dialyzed against buffer (50 mM Tris/HCl pH 7.0, 50 mM NaCl, 3 mM β-mercapthoetanol). During dialysis protein was digested with PreScission Protease (GE Healthcare). USP7 protein and cleaved GST were separated on Mono Q HR 10/10 column (GE Healthcare). The last purification step consisted of size exclusion chromatography on HiLoad 16/60 Superdex 75 prep grade (GE Healthcare) in 50 mM Tris/HCl, 150 mM NaCl, 2 mM DTT.

In the case of `C[C@H](CCC(=O)O)[C@H]1CC[C@H]2[C@@H]3[C@H](O)C[C@@H]4C[C@H](O)CC[C@]4(C)[C@H]3C[C@H](O)[C@]12C` [CGG, cholic acid, reference compound], in series [1], the IC50 (as a rule, the concentration needed to halve the response being measured) was over 100 µM. The “IC50, USP2a activity, Ub-AMC Assay” value in [2] is listed as “not active”.

For `C[C@H](CCC(=O)O)[C@H]1CC[C@H]2[C@@H]3CC[C@@H]4C[C@H](O)CC[C@]4(C)[C@H]3CC[C@]12C` [LCA, Lithocholic acid, reference compound], the “growth-inhibitory (GI) properties” value in the series with HCT116 p53^wt cells [3] is “inactive in the inhibition of cell growth”. Moreover, in the series on HCT116 p53^wt cells [4], the “expression of p27” value is on record as “not altered”; the “expression of proteins encoded by p53-target genes (MDM2 and p21) and of p53” value is given as “did not induce”. For the same compound, the IC50 in [1] came to 32 ± 3.2 µM. Besides, in the series with HCT116 p53^wt cells [5], the “cyclin D1 expression” value was “did not affect” and the “cyclin D3 expression” value is listed as “significantly increased”. In the series with HCT116 p53^−/− cells [6], the “cyclin D1 expression” value is listed as “did not affect” and the “cyclin D3 expression” value was “significantly increased”. The “inhibition of USP7 protein activity” value on USP7 is reported as “no inhibition”. In addition, the 50% inhibitory concentration (IC50) in series [2] turned out to be 31.1 ± 3.4 µM.

On to `C[C@H](CCC(=O)NCC#N)[C@H]1CC[C@H]2[C@@H]3CC[C@@H]4C[C@H](O)CC[C@]4(C)[C@H]3CC[C@]12C` [LCACN, N-(cyanomethyl)-3-hydroxylithocholanamide], for which the LD50 (concentration killing 50% of cells) with HCT116 p53^wt cells [3] came to 28 ± 0.7 µM. In addition, in the series with HCT116 p53^−/− cells [7] (setting [10]), the LD50 was 29.9 ± 3.2 µM. The IC50 in series [1] came out at 13.9 ± 2.3 µM; in series [2], 7.4 ± 1.2 µM. The solubility entry in series [8] is reported as “solubility problems”.

With `CC(=O)O[C@@H]1CC[C@@]2(C)[C@H](CC[C@@H]3[C@@H]2CC[C@]2(C)[C@@H]([C@H](C)CCC(=O)O)CC[C@@H]32)C1` [LCAE, 3-Acetoxy-Lithocholic Acid], the “growth-inhibitory (GI) properties” value in the series on HCT116 p53^wt cells [3] is on record as “no GI properties”. Besides, in the series on HCT116 p53^wt cells [4], the “expression of p27” value is listed as “not altered”; the “expression of proteins encoded by p53-target genes (MDM2 and p21) and of p53” value is “did not induce”. For the same compound, in the series on HCT116 p53^wt cells [5], the “cyclin D1 expression” value is given as “decreased the expression of the protein” and the “cyclin D3 expression” value is reported as “no effect”. In addition, the “cyclin D3 expression” value with HCT116 p53^−/− cells [6] is reported as “no effect”.

In the case of `C[C@H](CCC(=O)NCC(=O)O)[C@H]1CC[C@H]2[C@@H]3CC[C@@H]4C[C@H](O)CC[C@]4(C)[C@H]3CC[C@]12C` [LCAGLY, N-(3-hydroxylithocholanolyl)glycine], the IC50 in [1] and in series [2] was over 50 µM throughout.

Turning to `C[C@H](CCC(=O)O)[C@H]1CC[C@H]2[C@@H]3CC[C@@H]4CC(=O)CC[C@]4(C)[C@H]3CC[C@]12C` [LCAK, 3-Oxo-Lithocholic Acid], the IC50 was found to be 33.1 ± 3.2 µM in series [1] and 32 ± 1.8 µM in series [2].

As to `COC(=O)CC[C@@H](C)[C@H]1CC[C@H]2[C@@H]3CC[C@@H]4C[C@H](O)CC[C@]4(C)[C@H]3CC[C@]12C` [LCAME, Methyl 3-Hydroxylithocholanoate], the LD50 in the series with HCT116 p53^wt cells [3] (HCT116^wt, MTT assay, 6 days) amounted to 20.5 ± 1.1 µM; in the series with HCT116 p53^−/− cells [7] (HCT116 p53^−/−, MTT assay, 6 days) it was 35.1 ± 4.8 µM. The IC50 in [1] and in series [2] was over 50 µM each time.

Regarding `C[C@H](CCC(=O)N1CCOCC1)[C@H]1CC[C@H]2[C@@H]3CC[C@@H]4C[C@H](O)CC[C@]4(C)[C@H]3CC[C@]12C` [LCAMR, N-lithocholanolyl Morpholine], the LD50 (concentration killing 50% of cells) in the series with HCT116 p53^wt cells [3] amounted to 8.2 ± 0.7 µM. Further, the LD50 in the series with HCT116 p53^−/− cells [7] (setting [10]) came to 7.9 ± 0.7 µM. The 50% inhibitory concentration (IC50) in series [1] and in series [2] was over 100 µM in each case.

On to `C[C@H](CCC(N)=O)[C@H]1CC[C@H]2[C@@H]3CC[C@@H]4C[C@H](O)CC[C@]4(C)[C@H]3CC[C@]12C` [LCANH2, 3-hydroxylithocholanamide], for which the LD50 (concentration killing 50% of cells) in the series with HCT116 p53^wt cells [3] is 24.5 ± 0.9 µM. Further, in the series on HCT116 p53^−/− cells [7] (setting [10]), the LD50 is 41.8 ± 2.7 µM. Moreover, the IC50 amounted to 16.7 ± 1.3 µM in series [1] and 27.9 ± 1 µM in series [2].

As for `Cc1ccc(/C=C2\CNC/C(=C\c3ccc(C)cc3)C2=O)cc1` [NSC 632839, reference compound], the concentration for half-maximal inhibition (IC50) in series [1] is over 50 µM; in series [2], 39.1 ± 6.4 µM. Moreover, the EC50 (usually the midpoint of the concentration-response curve) with USP2a was 45 ± 4 µM.

With `C[C@H](CCC(=O)NCCS(=O)(=O)O)[C@H]1CC[C@H]2[C@@H]3[C@H](O)C[C@@H]4C[C@H](O)CC[C@]4(C)[C@H]3C[C@H](O)[C@]12C` [TCAS, taurocholic acid, reference compound], the “IC50, USP2a activity, Ub-AMC Assay” value in [2] was “not active”.

`C[C@H](CCC(=O)O)[C@H]1CC[C@H]2[C@@H]3[C@@H](O)C[C@@H]4C[C@H](O)CC[C@]4(C)[C@H]3CC[C@]12C` [UDCA, ursodeoxycholic acid, reference compound]: the IC50 in series [1] was over 100 µM. For the same compound, the “IC50, USP2a activity, Ub-AMC Assay” value in series [2] is reported as “not active”.

On to `CN[C@@H]1C[C@H]2O[C@@](C)([C@@H]1OC)n1c3ccccc3c3c4c(c5c6ccccc6n2c5c31)C(=O)NC4` [staurosporine, reference compound], for which the “activity of caspases 3 and 7” value in the series on HCT116 p53^wt cells [9] was “strong increase”.
